Experimental data taken from the NIST ThermoML archive (doi:10.1021/je025606c).

Legend:
[1] = molar heat capacity at constant pressure; settings: Liquid
[2] = Liquid; for kinematic viscosity: Capillary tube (Ostwald / Ubbelohde) method; for mass density: 1000 kPa, Vibrating tube method

CCOCCOCC [1,2-diethoxyethane]
Settings	kinematic viscosity [m2/s]	molar heat capacity at constant pressure [J/K/mol]
[1], 312.57 K, 1 kPa	–	264.59
[1], 322.47 K, 1 kPa	–	265.54
[1], 332.37 K, 1 kPa	–	268.37
[1], 342.27 K, 1 kPa	–	270.86
[1], 352.18 K, 1 kPa	–	273.57
[1], 362.08 K, 1 kPa	–	276.17
[1], 371.98 K, 1 kPa	–	280.31
[1], 381.88 K, 1 kPa	–	283.03
[1], 391.78 K, 1 kPa	–	286.22
[1], 401.68 K, 1 kPa	–	289.88
[1], 411.58 K, 1 kPa	–	293.43
[1], 421.48 K, 1 kPa	–	296.97
[2], 283.15 K, 101.3 kPa	9.5e-07	–
[2], 293.15 K, 101.3 kPa	8.22e-07	–
[2], 303.15 K, 101.3 kPa	7.28e-07	–
[2], 313.15 K, 101.3 kPa	6.48e-07	–
[2], 323.15 K, 101.3 kPa	5.84e-07	–
[2], 333.15 K, 101.3 kPa	5.32e-07	–
[2], 343.15 K, 101.3 kPa	4.87e-07	–

[2]
Settings	mass density [kg/m3]
283.15 K	862.9
293.15 K	852.8
303.15 K	842.6
313.15 K	832.3
323.15 K	822
333.15 K	811.6
343.15 K	801.1
353.15 K	790.5
363.15 K	779.6
373.15 K	768.6
383.15 K	757.2
393.15 K	745.8
403.15 K	734
413.15 K	721.8
423.15 K	709.4

COCC(C)OCC(C)OC (configuration not stated) [2-methoxy-1-(2-methoxy-1-methylethoxy)propane]
Settings	kinematic viscosity [m2/s]	molar heat capacity at constant pressure [J/K/mol]
[1], 312.57 K, 1000 kPa	–	328.67
[1], 322.47 K, 1000 kPa	–	332.56
[1], 332.37 K, 1000 kPa	–	336.62
[1], 342.27 K, 1000 kPa	–	340.35
[1], 352.18 K, 1000 kPa	–	345.22
[1], 362.08 K, 1000 kPa	–	349.92
[1], 371.98 K, 1000 kPa	–	354.14
[1], 381.88 K, 1000 kPa	–	359.49
[1], 391.78 K, 1000 kPa	–	364.69
[1], 401.68 K, 1000 kPa	–	369.71
[1], 411.58 K, 1000 kPa	–	373.93
[1], 421.48 K, 1000 kPa	–	381.23
[2], 283.15 K, 101.33 kPa	1.41e-06	–
[2], 293.15 K, 101.33 kPa	1.2e-06	–
[2], 303.15 K, 101.33 kPa	1.03e-06	–
[2], 313.15 K, 101.33 kPa	9.03e-07	–
[2], 323.15 K, 101.33 kPa	8.01e-07	–
[2], 333.15 K, 101.33 kPa	7.19e-07	–
[2], 343.15 K, 101.33 kPa	6.5e-07	–
[2], 353.15 K, 101.33 kPa	5.93e-07	–
[2], 363.15 K, 101.33 kPa	5.51e-07	–
[2], 373.15 K, 101.33 kPa	5.06e-07	–
[2], 383.15 K, 101.33 kPa	4.69e-07	–
[2], 393.15 K, 101.33 kPa	4.37e-07	–
[2], 403.15 K, 101.33 kPa	4.07e-07	–
[2], 413.15 K, 101.33 kPa	3.81e-07	–
[2], 423.15 K, 101.33 kPa	3.59e-07	–

[2]
Settings	mass density [kg/m3]
283.15 K	913
293.15 K	903.4
303.15 K	894
313.15 K	884.8
323.15 K	875.4
333.15 K	866
343.15 K	856.5
353.15 K	846.9
363.15 K	837
373.15 K	827.2
383.15 K	817.2
393.15 K	807.2
403.15 K	797.1
413.15 K	786.8
423.15 K	776.3

CCCCOCCOCCOCCOCCCC [5,8,11,14-tetraoxaoctadecane]
Settings	kinematic viscosity [m2/s]	molar heat capacity at constant pressure [J/K/mol]
[1], 312.57 K, 1000 kPa	–	544.45
[1], 322.47 K, 1000 kPa	–	547.86
[1], 332.37 K, 1000 kPa	–	553.9
[1], 342.27 K, 1000 kPa	–	559.14
[1], 352.18 K, 1000 kPa	–	564.65
[1], 362.08 K, 1000 kPa	–	571.48
[1], 371.98 K, 1000 kPa	–	578.82
[1], 381.88 K, 1000 kPa	–	584.33
[1], 391.78 K, 1000 kPa	–	589.58
[1], 401.68 K, 1000 kPa	–	597.71
[1], 411.58 K, 1000 kPa	–	603.75
[1], 421.48 K, 1000 kPa	–	612.15
[2], 283.15 K, 101.33 kPa	5.42e-06	–
[2], 293.15 K, 101.33 kPa	4.16e-06	–
[2], 303.15 K, 101.33 kPa	3.3e-06	–
[2], 313.15 K, 101.33 kPa	2.7e-06	–
[2], 323.15 K, 101.33 kPa	2.25e-06	–
[2], 333.15 K, 101.33 kPa	1.92e-06	–
[2], 343.15 K, 101.33 kPa	1.67e-06	–
[2], 353.15 K, 101.33 kPa	1.46e-06	–
[2], 363.15 K, 101.33 kPa	1.3e-06	–
[2], 373.15 K, 101.33 kPa	1.17e-06	–
[2], 383.15 K, 101.33 kPa	1.04e-06	–
[2], 393.15 K, 101.33 kPa	9.49e-07	–
[2], 403.15 K, 101.33 kPa	8.68e-07	–
[2], 413.15 K, 101.33 kPa	7.98e-07	–
[2], 423.15 K, 101.33 kPa	7.37e-07	–

[2]
Settings	mass density [kg/m3]
283.15 K	926.1
293.15 K	917.7
303.15 K	909.4
313.15 K	901.2
323.15 K	893
333.15 K	884.8
343.15 K	876.5
353.15 K	868.2
363.15 K	859.8
373.15 K	851.4
383.15 K	843
393.15 K	834.5
403.15 K	826.1
413.15 K	817.6
423.15 K	809.1

CCCCOCCOCCOCCCC [5,8,11-trioxapentadecane]
Settings	kinematic viscosity [m2/s]	molar heat capacity at constant pressure [J/K/mol]
[1], 312.57 K, 1000 kPa	–	456.53
[1], 322.47 K, 1000 kPa	–	460.9
[1], 332.37 K, 1000 kPa	–	465.49
[1], 342.27 K, 1000 kPa	–	470.51
[1], 352.18 K, 1000 kPa	–	475.75
[1], 362.08 K, 1000 kPa	–	480.33
[1], 371.98 K, 1000 kPa	–	486.88
[1], 381.88 K, 1000 kPa	–	493.65
[1], 391.78 K, 1000 kPa	–	500.42
[1], 401.68 K, 1000 kPa	–	505.44
[1], 411.58 K, 1000 kPa	–	512.21
[1], 421.48 K, 1000 kPa	–	517.89
[2], 283.15 K, 101.33 kPa	3.36e-06	–
[2], 293.15 K, 101.33 kPa	2.69e-06	–
[2], 303.15 K, 101.33 kPa	2.21e-06	–
[2], 313.15 K, 101.33 kPa	1.86e-06	–
[2], 323.15 K, 101.33 kPa	1.59e-06	–
[2], 333.15 K, 101.33 kPa	1.38e-06	–
[2], 343.15 K, 101.33 kPa	1.22e-06	–
[2], 353.15 K, 101.33 kPa	1.08e-06	–
[2], 363.15 K, 101.33 kPa	9.68e-07	–
[2], 373.15 K, 101.33 kPa	8.72e-07	–
[2], 383.15 K, 101.33 kPa	7.95e-07	–
[2], 393.15 K, 101.33 kPa	7.28e-07	–
[2], 403.15 K, 101.33 kPa	6.7e-07	–
[2], 413.15 K, 101.33 kPa	6.21e-07	–
[2], 423.15 K, 101.33 kPa	5.78e-07	–

[2]
Settings	mass density [kg/m3]
283.15 K	891.6
293.15 K	883.2
303.15 K	875
313.15 K	866.8
323.15 K	858.5
333.15 K	850.4
343.15 K	842.1
353.15 K	833.7
363.15 K	824.9
373.15 K	816.5
383.15 K	807.9
393.15 K	799.4
403.15 K	790.8
413.15 K	782.1
423.15 K	773.3

CCOCCOCCOCC [diethylene glycol diethyl ether]
Settings	kinematic viscosity [m2/s]	molar heat capacity at constant pressure [J/K/mol]
[1], 312.57 K, 1000 kPa	–	349.11
[1], 322.47 K, 1000 kPa	–	351.22
[1], 332.37 K, 1000 kPa	–	353.33
[1], 342.27 K, 1000 kPa	–	355.44
[1], 352.18 K, 1000 kPa	–	358.68
[1], 362.08 K, 1000 kPa	–	360.79
[1], 371.98 K, 1000 kPa	–	364.85
[1], 381.88 K, 1000 kPa	–	368.9
[1], 391.78 K, 1000 kPa	–	372.15
[1], 401.68 K, 1000 kPa	–	377.01
[1], 411.58 K, 1000 kPa	–	380.75
[1], 421.48 K, 1000 kPa	–	384.8
[2], 283.15 K, 101.33 kPa	1.84e-06	–
[2], 293.15 K, 101.33 kPa	1.5e-06	–
[2], 303.15 K, 101.33 kPa	1.27e-06	–
[2], 313.15 K, 101.33 kPa	1.09e-06	–
[2], 323.15 K, 101.33 kPa	9.56e-07	–
[2], 333.15 K, 101.33 kPa	8.48e-07	–
[2], 343.15 K, 101.33 kPa	7.6e-07	–
[2], 353.15 K, 101.33 kPa	6.91e-07	–
[2], 363.15 K, 101.33 kPa	6.33e-07	–
[2], 373.15 K, 101.33 kPa	5.77e-07	–
[2], 383.15 K, 101.33 kPa	5.32e-07	–
[2], 393.15 K, 101.33 kPa	4.93e-07	–
[2], 403.15 K, 101.33 kPa	4.59e-07	–
[2], 413.15 K, 101.33 kPa	4.29e-07	–
[2], 423.15 K, 101.33 kPa	4.02e-07	–

[2]
Settings	mass density [kg/m3]
283.15 K	917.4
293.15 K	907.9
303.15 K	898.4
313.15 K	889
323.15 K	879.5
333.15 K	870
343.15 K	860.2
353.15 K	850
363.15 K	840.2
373.15 K	830.3
383.15 K	820.4
393.15 K	810.3
403.15 K	800
413.15 K	789.7
423.15 K	779.2
